Literature values in US20250295727A1, “STABLE, READY-TO-ADMINISTER AQUEOUS FORMULATIONS OF DALBAVANCIN” (HIKMA PHARMACEUTICALS USA INC., priority 2022, published 2025).

Details: lyophilized
[1] = storage at 25° C. for 12 months

Substance: dalbavancin [unformulated lyophilized dalbavancin]
- decrease of B0 [1]: 8.5%
- increase of MAG [1]: 10.2%
- decrease in dalbavancin's primary factor B0 (storage for 36 months at 5° C.): 3.6%
- increase in MAG (storage for 36 months at 5° C.): 2.9%
